Laboratory results reported in the NIST ThermoML archive (doi:10.1016/j.fluid.2017.01.024).
Several values for one entry are separate records, joined by “and”; a condition that tells them apart may be missing. Equal values may be shown once. Numbers after ± are expanded uncertainties.

Conditions: Liquid, Closed cell (Static) method

Compound | vapor or sublimation pressure (283.15 K) | vapor or sublimation pressure (288.15 K) | vapor or sublimation pressure (293.15 K) | vapor or sublimation pressure (293.16 K) | vapor or sublimation pressure (298.15 K) | vapor or sublimation pressure (303.15 K) | vapor or sublimation pressure (308.16 K) | vapor or sublimation pressure (313.15 K) | vapor or sublimation pressure (313.16 K) | vapor or sublimation pressure (318.16 K) | vapor or sublimation pressure (323.15 K) | vapor or sublimation pressure (288.16 K) | vapor or sublimation pressure (298.14 K) | vapor or sublimation pressure (308.15 K) | vapor or sublimation pressure (318.15 K)
C=C(F)C(F)(F)F [2,3,3,3-tetrafluoro-1-propene] | 437.4 ± 1.2 kPa and 437.4 ± 1.6 kPa | 509.9 ± 1.3 kPa | 591.7 ± 2 kPa | 591.7 ± 1.4 kPa | 681.9 ± 1.4 kPa | 782.5 ± 2.5 kPa and 782.5 ± 1.6 kPa | 893.6 ± 1.7 kPa | 1017.8 ± 3.2 kPa | 1017.8 ± 1.8 kPa | 1153.2 ± 2 kPa | 1301.4 ± 4.1 kPa and 1301.4 ± 2.2 kPa |  |  |  | 
FCF [difluoromethane] | 1107.3 ± 3.5 kPa |  | 1474 ± 4.7 kPa |  |  | 1925.8 ± 6.1 kPa |  | 2476.2 ± 7.8 kPa |  |  | 3138 ± 9.8 kPa |  |  |  | 
CCF [fluoroethane] | 601.4 ± 1.4 kPa and 601.4 ± 2 kPa |  | 805.6 ± 2.6 kPa and 805.6 ± 1.6 kPa |  |  | 1057.4 ± 3.3 kPa and 1057.4 ± 1.9 kPa |  | 1363.6 ± 4.3 kPa | 1363.6 ± 2.3 kPa |  | 1730.6 ± 5.4 kPa and 1730.6 ± 2.8 kPa | 698.2 ± 1.5 kPa | 924.8 ± 1.7 kPa | 1203.4 ± 2.1 kPa | 1539 ± 2.5 kPa
